In the NIST ThermoML archive (doi:10.1021/je0341413):
± gives the expanded uncertainty stated by the source.

What was measured:
[1] = xn = mol fraction of the nth substance listed; details: 101.3 kPa, Liquid
[2] = Liquid; for viscosity: 101.3 kPa; for mass density: 101.33 kPa

CCOC(=O)OCC [diethyl carbonate] + CO
viscosity ([1]; 293.15 K, x1 = 0.0513): 0.592 ± 0.019 mPa·s
viscosity ([1]; 293.15 K, x1 = 0.1002): 0.596 ± 0.019 mPa·s
viscosity ([1]; 293.15 K, x1 = 0.1972): 0.608 ± 0.019 mPa·s
viscosity ([1]; 293.15 K, x1 = 0.2839): 0.623 ± 0.02 mPa·s
viscosity ([1]; 293.15 K, x1 = 0.4038): 0.642 ± 0.02 mPa·s
viscosity ([1]; 293.15 K, x1 = 0.5): 0.657 ± 0.021 mPa·s
viscosity ([1]; 293.15 K, x1 = 0.5933): 0.675 ± 0.021 mPa·s
viscosity ([1]; 293.15 K, x1 = 0.6417): 0.685 ± 0.022 mPa·s
viscosity ([1]; 293.15 K, x1 = 0.7996): 0.722 ± 0.023 mPa·s
viscosity ([1]; 293.15 K, x1 = 0.9014): 0.75 ± 0.024 mPa·s
viscosity ([1]; 293.15 K, x1 = 0.9709): 0.782 ± 0.025 mPa·s
viscosity ([1]; 293.15 K, x1 = 1): 0.795 ± 0.025 mPa·s
viscosity ([1]; 298.15 K, x1 = 0.0496): 0.556 ± 0.018 mPa·s
viscosity ([1]; 298.15 K, x1 = 0.0996): 0.558 ± 0.018 mPa·s
viscosity ([1]; 298.15 K, x1 = 0.1985): 0.574 ± 0.018 mPa·s
viscosity ([1]; 298.15 K, x1 = 0.2944): 0.588 ± 0.019 mPa·s
viscosity ([1]; 298.15 K, x1 = 0.4014): 0.603 ± 0.019 mPa·s
viscosity ([1]; 298.15 K, x1 = 0.4975): 0.615 ± 0.019 mPa·s
viscosity ([1]; 298.15 K, x1 = 0.6068): 0.637 ± 0.02 mPa·s
viscosity ([1]; 298.15 K, x1 = 0.7087): 0.658 ± 0.021 mPa·s
viscosity ([1]; 298.15 K, x1 = 0.8365): 0.688 ± 0.022 mPa·s
viscosity ([1]; 298.15 K, x1 = 0.9091): 0.71 ± 0.022 mPa·s
viscosity ([1]; 298.15 K, x1 = 0.9598): 0.731 ± 0.023 mPa·s
viscosity ([1]; 298.15 K, x1 = 1): 0.749 ± 0.024 mPa·s
viscosity ([1]; 303.15 K, x1 = 0.049): 0.518 ± 0.016 mPa·s
viscosity ([1]; 303.15 K, x1 = 0.0966): 0.524 ± 0.017 mPa·s
viscosity ([1]; 303.15 K, x1 = 0.1958): 0.537 ± 0.017 mPa·s
viscosity ([1]; 303.15 K, x1 = 0.2824): 0.548 ± 0.017 mPa·s
viscosity ([1]; 303.15 K, x1 = 0.3914): 0.563 ± 0.018 mPa·s
viscosity ([1]; 303.15 K, x1 = 0.4936): 0.578 ± 0.018 mPa·s
viscosity ([1]; 303.15 K, x1 = 0.581): 0.592 ± 0.019 mPa·s
viscosity ([1]; 303.15 K, x1 = 0.6945): 0.612 ± 0.019 mPa·s
viscosity ([1]; 303.15 K, x1 = 0.7349): 0.62 ± 0.02 mPa·s
viscosity ([1]; 303.15 K, x1 = 0.8512): 0.645 ± 0.02 mPa·s
viscosity ([1]; 303.15 K, x1 = 0.9214): 0.663 ± 0.021 mPa·s
viscosity ([1]; 303.15 K, x1 = 1): 0.699 ± 0.022 mPa·s
viscosity ([1]; 313.15 K, x1 = 0.0509): 0.456 ± 0.015 mPa·s
viscosity ([1]; 313.15 K, x1 = 0.0999): 0.46 ± 0.015 mPa·s
viscosity ([1]; 313.15 K, x1 = 0.2009): 0.475 ± 0.015 mPa·s
viscosity ([1]; 313.15 K, x1 = 0.2981): 0.49 ± 0.016 mPa·s
viscosity ([1]; 313.15 K, x1 = 0.4009): 0.505 ± 0.016 mPa·s
viscosity ([1]; 313.15 K, x1 = 0.5056): 0.524 ± 0.017 mPa·s
viscosity ([1]; 313.15 K, x1 = 0.6062): 0.543 ± 0.017 mPa·s
viscosity ([1]; 313.15 K, x1 = 0.7033): 0.561 ± 0.018 mPa·s
viscosity ([1]; 313.15 K, x1 = 0.8055): 0.584 ± 0.018 mPa·s
viscosity ([1]; 313.15 K, x1 = 0.902): 0.603 ± 0.019 mPa·s
viscosity ([1]; 313.15 K, x1 = 0.9448): 0.61 ± 0.019 mPa·s
viscosity ([1]; 313.15 K, x1 = 1): 0.623 ± 0.02 mPa·s

CCO [ethanol]
viscosity ([2]; 293.15 K): 1.194 ± 0.037 mPa·s
viscosity ([2]; 298.15 K): 1.105 ± 0.035 mPa·s
mass density ([2]; 298.15 K): 785 ± 0.5 kg/m3
viscosity ([2]; 303.15 K): 0.972 ± 0.031 mPa·s
viscosity ([2]; 313.15 K): 0.826 ± 0.026 mPa·s

CCO [ethanol] + CCOC(=O)OCC
viscosity ([1]; 293.15 K, x2 = 0): 1.194 ± 0.037 mPa·s
viscosity ([1]; 298.15 K, x2 = 0): 1.105 ± 0.035 mPa·s
viscosity ([1]; 303.15 K, x2 = 0): 0.972 ± 0.031 mPa·s
viscosity ([1]; 313.15 K, x2 = 0): 0.826 ± 0.026 mPa·s

CO [methanol]
viscosity ([2]; 293.15 K): 0.591 ± 0.019 mPa·s
viscosity ([2]; 298.15 K): 0.553 ± 0.018 mPa·s
mass density ([2]; 298.15 K): 786.6 ± 0.5 kg/m3
viscosity ([2]; 303.15 K): 0.514 ± 0.016 mPa·s
viscosity ([2]; 313.15 K): 0.45 ± 0.014 mPa·s

CO [methanol] + CCOC(=O)OCC
viscosity ([1]; 293.15 K, x2 = 0): 0.591 ± 0.019 mPa·s
viscosity ([1]; 298.15 K, x2 = 0): 0.553 ± 0.018 mPa·s
viscosity ([1]; 303.15 K, x2 = 0): 0.514 ± 0.016 mPa·s
viscosity ([1]; 313.15 K, x2 = 0): 0.45 ± 0.014 mPa·s

CCCCCO [pentan-1-ol]
viscosity ([2]; 293.15 K): 3.979 ± 0.13 mPa·s
viscosity ([2]; 298.15 K): 3.347 ± 0.11 mPa·s
mass density ([2]; 298.15 K): 810.9 ± 0.6 kg/m3
viscosity ([2]; 303.15 K): 2.932 ± 0.093 mPa·s
viscosity ([2]; 313.15 K): 2.256 ± 0.072 mPa·s

CCCCCO [pentan-1-ol] + CCOC(=O)OCC
viscosity ([1]; 293.15 K, x2 = 0): 3.979 ± 0.13 mPa·s
viscosity ([1]; 298.15 K, x2 = 0): 3.347 ± 0.11 mPa·s
viscosity ([1]; 303.15 K, x2 = 0): 2.932 ± 0.093 mPa·s
viscosity ([1]; 313.15 K, x2 = 0): 2.256 ± 0.072 mPa·s

CCCO [propan-1-ol]
viscosity ([2]; 293.15 K): 2.198 ± 0.069 mPa·s
viscosity ([2]; 298.15 K): 1.97 ± 0.062 mPa·s
mass density ([2]; 298.15 K): 799.5 ± 0.5 kg/m3
viscosity ([2]; 303.15 K): 1.707 ± 0.054 mPa·s
viscosity ([2]; 313.15 K): 1.361 ± 0.043 mPa·s

CCCO [propan-1-ol] + CCOC(=O)OCC
viscosity ([1]; 293.15 K, x2 = 0): 2.198 ± 0.069 mPa·s
viscosity ([1]; 298.15 K, x2 = 0): 1.97 ± 0.062 mPa·s
viscosity ([1]; 303.15 K, x2 = 0): 1.707 ± 0.054 mPa·s
viscosity ([1]; 313.15 K, x2 = 0): 1.361 ± 0.043 mPa·s

CC(C)O [propan-2-ol]
viscosity ([2]; 293.15 K): 2.386 ± 0.075 mPa·s
viscosity ([2]; 298.15 K): 2.098 ± 0.067 mPa·s
mass density ([2]; 298.15 K): 780.9 ± 0.5 kg/m3
viscosity ([2]; 303.15 K): 1.763 ± 0.056 mPa·s
viscosity ([2]; 313.15 K): 1.325 ± 0.042 mPa·s

CC(C)O [propan-2-ol] + CCOC(=O)OCC
viscosity ([1]; 293.15 K, x2 = 0): 2.386 ± 0.075 mPa·s
viscosity ([1]; 298.15 K, x2 = 0): 2.098 ± 0.067 mPa·s
viscosity ([1]; 303.15 K, x2 = 0): 1.763 ± 0.056 mPa·s
viscosity ([1]; 313.15 K, x2 = 0): 1.325 ± 0.042 mPa·s
